# From US7875599B2, “C-17-heteroaryl steroidal CYP17 inhibitors/antiandrogens, in vitro biological activities, pharmacokinetics and antitumor activity” (University of Maryland, priority 2005, dated 2011)
# Tested on: LAPC4 human prostate tumor xenograft
# Experiment: LAPC4 xenograft, second experiment (treatment from day after inoculation)
# Type: in vivo, mouse
# Details: 0.15 mmol/kg twice-daily s.c.
# Excerpt: The second in vivo experiment tests the ability of 5 to inhibit the growth of LAPC4 prostate cancer cells growing in SCID mice, and 16 (Chart 1), a previously identified potent CYP17 inhibitor/antiandrogen (Gregoriyev et al. and Njar et al., J. Med. Chem., 1998, 41, 902-912, above) and castration are used as reference treatments. In this experiment, treatment begins on the day that mice were inoculated subcutaneously with hormone-dependent LAPC4 cells and are castrated or injected sc twice daily with 5 or 16.
# In Vivo Antitumor Studies (LAPC-4 Prostate Cancer Xenografts): All animal studies are performed according to the guidelines and approval of the Animal Care Committee of the University of Maryland School of Medicine, Baltimore. Male severe combined immunodeficient (SCID) mice 4-6 weeks of age purchased from the National Cancer Institute-Frederick Cancer Research and Development Center (Fredrick, Md.) are housed in a pathogen-free environment under controlled conditions of light and humidity and allowed free access to food and water. Tumors are developed from LAPC4 cells inoculated subcutaneously (s.c.) in the mice essentially as previously described (21). LAPC4 cells are grown in IMEM with 15% FBS plus 1% PS and 10 nm DHT until 80% confluent. Cells are scraped into DPBS, collected by centrifugation, and resuspended in Matrigel (10 mg/ml) at 3×10^7 cells/ml. Mice are injected s.c. with 100 μl of the cell suspension at one site on each flank. Tumors are measured weekly with calipers, and tumor volumes are calculated by the formula: […]).
# In the second experiment, mice are inoculated with LAPC4 cells and are divided into four groups of 5 mice each. The control and castrated group receiv vehicle, while the other two groups receiv either VN/85-1 (0.15 mmol/kg twice-daily, 9 a.m. and 5 p.m.) or 5 (0.15 mmol/kg twice-daily, 9 a.m. and 5 p.m.). These treatments are initiated one day after LAPC4 cell inoculation; continued for 14 weeks for control group, 19 weeks (for VN/85-1 and castration groups) and for 21 weeks for 5 treated group and tumors are measured and processed as described above.
# FIG. 7: The effects of 5, 16, and orchidectomy on the formation and growth of LAPC4 prostate tumors in male SCID mice. 3×10^7 LAPC-4 cells were injected s.c. into the dorsal flank of SCID mice. One group of mice was castrated. The other groups of mice received either vehicle or 5 (0.15 mmol/kg twice-daily) or 16 (0.15 mmol/kg twice-daily). Daily treatment with 5 or 16 was initiated 1 day after cell inoculation. Tumors volumes were measured weekly, and the percentage of change in tumor volume was determined after 16 weeks of treatment * Indicates significant difference of 5 versus control, castration and 16 at week 14 (P 0.00065, 0.05 and 0.0097, respectively). ** Indicates significant difference of 5 versus castration and 16 at week 16 (P=0.047 and 0.0047, respectively). ↓-↓↓: Period of reduced administered dose of 5.
compound,measurement,setting,value
"C[C@]12CC[C@H](O)CC1=CC[C@@H]1[C@@H]2CC[C@]2(C)C(n3cnc4ccccc43)=CC[C@@H]12 [Compound 5, 3β-Hydroxy-17-(1H-benzimidazol-1-yl)androsta-5,16-diene]",increase of tumor volume,week 14,0.5 fold
same,reduction of tumor volume versus control mice,week 14 (b4 prints 50 mg/kg/twice daily),93.8%
